What all share (type): functional
Design in all cases: concentration or dose not given beside the values

The test system of experiment [1] is Plasmodium falciparum. Kind of experiment: MMV: P. falciparum NF54 functionally mature Stage V gametocytes were incubated for 24 hr in the presence of the test compounds. Gamete formation was then triggered by addition of 2uM xantheurenic acid and temperature decrease to ~20C. Female gamete formation was recorded 24 hr later by automated microscopy detection of surface labelling of female gametes with a Cy3-conjugated antibody reactive to Pfs25. All compounds were tested in 4 independent experiments and data presented here is the mean. As to conditions: NF54, 24 h.

The test system of a further experiment is Plasmodium berghei. As to the kind of experiment: MMV: P. berghei-infected blood was withdrawn from mice by cardiac pucture before being immediately added to ookinete culture medium containing test compounds. 26 hr later, GFP-positive ookinetes were identified and counted by automated microscopy. All compounds were tested in 4 independent experiments and data presented here is the mean.

For experiment [2], the system named is Plasmodium falciparum. As to the kind of experiment: MMV: P. falciparum NF54 functionally mature Stage V gametocytes were incubated for 24 hr in the presence of the test compounds. Gamete formation was then triggered by addition of 2uM xantheurenic acid and temperature decrease to ~20C. Male gamete exflagellation was recorded and analysed by automated microscopy after 20 min. All compounds were tested in 4 independent experiments and data presented here is the mean.

The inhibition is the change of the read-out against control, counted positive when it falls. As to `COc1cccc(Cn2c(Oc3ccccc3)nc3c2c(=O)n(C)c(=O)n3C)c1`, the figures for the inhibition in the experiment on Plasmodium falciparum [1], in the experiment with Plasmodium berghei and with Plasmodium falciparum [2] were 1.84%, -11.71% and 35.5%, respectively.

Take `Cc1ccc(-c2cc3c(SCC(=O)Nc4cc(C(F)(F)F)ccc4Cl)nccn3n2)cc1`: the inhibition with Plasmodium falciparum [1] is 0.168%; in the experiment on Plasmodium berghei it was -10.47%; with Plasmodium falciparum [2] it was 11.4%.

For the compound `CC1(c2ccccc2)Nc2ccccc2-c2nc3ccccc3n21` (stereo not drawn), the inhibition in the experiment with Plasmodium falciparum [1] is 0.151%; in the experiment on Plasmodium berghei, -11.28%; with Plasmodium falciparum [2] it was 11.7%.

For `Cc1ccc(-c2cc(C(=O)Nc3ccc(S(=O)(=O)N4CCCCC4)cc3)[nH]n2)c(O)c1`, the results for the inhibition in the experiment with Plasmodium falciparum [1], in the experiment on Plasmodium berghei and with Plasmodium falciparum [2] were -11.2%, -10.93% and 7.64%, respectively.

With `COc1cccc(Nc2nc(N)c3ccccc3n2)c1.Cl`, the inhibition in the experiment on Plasmodium falciparum [1] was -36.4%; in the experiment with Plasmodium berghei, -11.42%; in the experiment on Plasmodium falciparum [2], -35.2%.

Take `O=C(NC1CCCC1)c1ccc(N2CCC(NCc3cccc(C(F)(F)F)c3)CC2)cc1`: the inhibition is -14% in the experiment with Plasmodium falciparum [1], -10.11% in the experiment on Plasmodium berghei and -12% with Plasmodium falciparum [2].

As to `CCOc1ccc(C2N(C)c3ccccc3N2C)cc1`, the inhibition is 9.89% in the experiment on Plasmodium falciparum [1], -11.42% in the experiment on Plasmodium berghei and -6.18% in the experiment on Plasmodium falciparum [2].

Consider `CCOc1cccc(C(=O)Nc2ccc(-c3nc4ccccc4[nH]3)cc2)c1`, for which the inhibition in the experiment on Plasmodium falciparum [1] is -29.6%; with Plasmodium berghei, -10.12%; in the experiment on Plasmodium falciparum [2] it was 32.1%.

Turning to `Cc1ccc2cc3c(N)c4c(C)ccc(C)c4nc3nc2c1`, the inhibition in the experiment with Plasmodium falciparum [1] was -28.1%; in the experiment on Plasmodium berghei, -10.8%; in the experiment with Plasmodium falciparum [2], -9.27%.

As to `Cc1cc(C)c2c(c1)OCN(Cc1ccccc1Cl)C2`, the inhibition was -10% in the experiment with Plasmodium falciparum [1], -11.06% in the experiment with Plasmodium berghei and 25.8% with Plasmodium falciparum [2].

In the case of `CCCC(c1nnnn1C1CCCCC1)N1CCN(C(=O)c2ccco2)CC1.Cl` (stereo not drawn), the inhibition was -48.5% in the experiment on Plasmodium falciparum [1], -10.21% in the experiment with Plasmodium berghei and 23.7% in the experiment on Plasmodium falciparum [2].

For `CCOc1cc2c(cc1OCC)C(c1cc(Cl)c(O)c(OCC)c1)NCC2` (stereo not drawn), the inhibition is 14.7% in the experiment on Plasmodium falciparum [1], -11.39% in the experiment with Plasmodium berghei and 22.4% in the experiment on Plasmodium falciparum [2].

As for `O=C(Nc1ccc(F)c(Cl)c1)Nc1ccc(Cl)c(Cl)c1`, the inhibition in the experiment with Plasmodium falciparum [1] is -12.2%; with Plasmodium berghei, -10.47%; with Plasmodium falciparum [2], 15.7%.

In the case of `COc1cc(CNCCc2ccc(Cl)cc2)cc(OC)c1O`, the inhibition in the experiment with Plasmodium falciparum [1] was -40.5%; in the experiment with Plasmodium berghei, -10.96%; with Plasmodium falciparum [2], -14.1%.

In the case of `COc1ccc(C(=O)NC(c2ccccc2Cl)c2cc(Cl)c3cccnc3c2O)cc1` (stereo not drawn), the results for the inhibition in the experiment with Plasmodium falciparum [1], with Plasmodium berghei and in the experiment with Plasmodium falciparum [2] were -6.93%, -9.997% and 2.11%, respectively.

`Clc1ccc2c(N3CCCC3)ccnc2c1`: the values for the inhibition in the experiment on Plasmodium falciparum [1], in the experiment with Plasmodium berghei and in the experiment on Plasmodium falciparum [2] were 5.78%, -9.994% and 33.7%, respectively.

For `Br.Cc1ccc(C)c(-c2csc(Nc3ccc(C)c(C)c3)n2)c1`, the results for the inhibition in the experiment on Plasmodium falciparum [1], with Plasmodium berghei and with Plasmodium falciparum [2] were -46.3%, -11.38% and 20.6%, respectively.

`Br.CCN(CC)S(=O)(=O)c1ccc(-c2csc(Nc3ccc(C)c(C)c3)n2)cc1`: the inhibition in the experiment on Plasmodium falciparum [1] was -51.5%; with Plasmodium berghei it was -11.5%; with Plasmodium falciparum [2], 21.9%.

`COc1ccc(NC(=O)C2c3ccccc3C(=O)N(CC(C)C)C2c2cccs2)cc1` (stereo not drawn): the inhibition was 13.9% with Plasmodium falciparum [1], -10.74% in the experiment on Plasmodium berghei and 22.3% in the experiment on Plasmodium falciparum [2].

As for `Cc1ccc(S(=O)(=O)c2c(COC(=O)c3cccc(C)c3)c(-c3ccccc3)nn2C)cc1`, the inhibition in the experiment on Plasmodium falciparum [1] is -31.3%; in the experiment on Plasmodium berghei, -10.49%; in the experiment on Plasmodium falciparum [2], -0.37%.

On to `CCCCN(CCCC)S(=O)(=O)c1ccc(NC(=O)c2ccco2)cc1`, for which the inhibition in the experiment with Plasmodium falciparum [1] is -25.1%; with Plasmodium berghei, -10.62%; with Plasmodium falciparum [2], 30.9%.

The values are drawn from ChEMBL document CHEMBL3301451, “MMV Malaria Box gametocyte functional viability assay screening”.
